In paper PMC10081574, “Evaluation of Antiviral Activity of Gemcitabine Derivatives against Influenza Virus and Severe Acute Respiratory Syndrome Coronavirus 2” (ACS Infectious Diseases, 2023):
Where two headings read alike, the source gives them in different places.

Columns and labels:
[1] = system: influenza A and B viruses; test: CPE reduction antiviral assay, values summarised over influenza strains PR8, HK and Lee; format: cell-based, influenza virus; conditions: for EC90 / EC50: span over PR8, HK and Lee; for EC90 / EC50 / subtoxic concentration at which over 90% viability of infected cells was recorded / recovery of viability of virus-infected cells with 90% cutoff: MDCK; for EC90: read-out: EC90 against influenza viruses; for EC50: read-out: EC50 against influenza viruses; for subtoxic concentration at which over 90% viability of infected cells was recorded / recovery of viability of virus-infected cells with 90% cutoff: day 3; for SI90 against influenza viruses / SI50 against influenza viruses: over PR8, HK and Lee; for SI90 against influenza viruses: CC10/EC90; for SI50 against influenza viruses: CC50/EC50
[2] = system: A/Puerto Rico/8/34 (H1N1); test: microbe, parasite or virus in culture; conditions: Influenza A virus, 72 h; for EC50 / EC90: H1N1 / PR8, MDCK; for EC50: read-out: EC50 PR8; for EC90: read-out: EC90 PR8; for viability at 10 µM: H1N1|PR8, MDCK, read-out: viability of PR8-infected cells in library screening
A/Hong Kong/8/68 (H3N2) [3] = test: microbe, parasite or virus in culture; conditions: Influenza A virus, H3N2, MDCK, 72 h; for EC50: read-out: EC50 HK; for EC90: read-out: EC90 HK; for viability at 10 µM: read-out: viability of HK-infected cells in library screening
in vitro = conditions: dog
B/Lee/40 = test: CPE reduction antiviral assay in Lee-infected MDCK cells (MTT); format: cell-based, influenza B virus; conditions: for EC50 / EC90: Influenza B virus, MDCK, 72 h; for EC50: viability of infected cells to 50%; for EC90: read-out: EC90 Lee; for SI50 Lee: ratio of CC50 to EC50; for SI90 Lee: ratio of CC10 to EC90
A/Hong Kong/8/68 (H3N2) [4] = conditions: for SI90 HK: ratio of CC10 to EC90; for SI50 HK: ratio of CC50 to EC50
[5] = system: A/Puerto Rico/8/34 (H1N1); conditions: for SI90 PR8: ratio of CC10 to EC90; for SI50 PR8: ratio of CC50 to EC50
MDCK cells = conditions: dog, 3 days
[6] = read-out: EC50 Lee, MDCK, MOI 0.001, day 3
[7] = MOI 0.001, day 3, viability of infected cells to 90%
[8] = MOI 0.001, day 3, read-out: EC50 Lee

| SMILES | EC90 ([1]; Influenza A virus, PR8, MDCK) | SI90 against influenza viruses [1] | EC50 [2] | EC90 [2] | EC50 (A/Hong Kong/8/68 (H3N2) [3]) | EC90 (A/Hong Kong/8/68 (H3N2) [3]) | CC50 at 3 days (in vitro) | SI50 Lee (B/Lee/40) | SI90 HK (A/Hong Kong/8/68 (H3N2) [4]) | SI50 HK (A/Hong Kong/8/68 (H3N2) [4]) | SI90 PR8 [5] | SI50 PR8 [5] | EC90 (B/Lee/40; [7]) | EC50 (B/Lee/40; [8]) | SI90 Lee (B/Lee/40) | CC10 (MDCK cells) | other results |
| --- | --- | --- | --- | --- | --- | --- | --- | --- | --- | --- | --- | --- | --- | --- | --- | --- | --- |
| O=C(Nc1ccn([C@@H]2O[C@H](CO)[C@@H](O)C2(F)F)c(=O)n1)c1ccccc1 [Compound 1] | 76.2 to 98.1 µM | > 1.9 | 43.4 ± 8.6 µM | 76.2 ± 30.9 µM | 54.2 ± 5.1 µM | 98.1 ± 0.2 µM | > 300 µM | > 13.3 | > 3.1 | > 5.5 | > 3.9 | > 6.9 | – | – | – | – | EC50 ([1]; Influenza A virus): 22.5 to 54.2 µM; subtoxic concentration at which over 90% viability of infected cells was recorded [1]: 100 µM; SI50 against influenza viruses [1]: > 5.5; viability at 10 µM [2]: 10 to 20%; viability at 10 µM (A/Hong Kong/8/68 (H3N2) [3]): 10 to 20%; EC50 (B/Lee/40; [6]): 22.5 ± 0.4 µM; EC90 (B/Lee/40): 78.7 ± 2.7 µM; EC50 ([5]; read-out: EC50 PR8): 43.5 ± 8.6 µM |
| O=C(Nc1ccn([C@@H]2O[C@H](CO)[C@@H](O)C2(F)F)c(=O)n1)c1ccccn1 [Compound 2a] | 1.4 to 2.2 µM | 4.4–7.1 | 0.9 ± 0.2 µM | 1.8 ± 0.5 µM | 0.6 µM | 1.4 ± 0.1 µM | > 300 µM | > 495.7 | 7.1 | > 462.2 | 5.5 | > 342.5 | 2.2 ± 0.8 µM | 0.6 µM | 4.4 | – | EC50 ([1]; Influenza A virus): 0.6 to 0.9 µM; subtoxic concentration at which over 90% viability of infected cells was recorded [1]: 3.7 µM; SI50 against influenza viruses [1]: > 342.5; EC90 [1]: 1.4 to 16.9 µM; viability at 10 µM [2]: > 50%; viability at 10 µM (A/Hong Kong/8/68 (H3N2) [3]): > 50% |
| Cc1ccc(C(=O)Nc2ccn([C@@H]3O[C@H](CO)[C@@H](O)C3(F)F)c(=O)n2)nc1 [Compound 2b] | – | > 1.4 | 13.4 ± 0.9 µM | 25.3 ± 1.3 µM | 51.8 ± 42.6 µM | 117 ± 18.5 µM | > 300 µM | > 37.3 | 1.8 | > 5.8 | 8.3 | > 22.4 | 43.8 ± 24.4 µM | 8.1 ± 0.7 µM | 4.8 | 209.2 ± 61.7 µM | – |
| Cc1cccnc1C(=O)Nc1ccn([C@@H]2O[C@H](CO)[C@@H](O)C2(F)F)c(=O)n1 [Compound 2c] | – | > 1.4 | 32.8 ± 5.8 µM | 114 ± 24.7 µM | 26.8 µM | 41.2 ± 0.5 µM | > 300 µM | > 11.5 | > 7.3 | > 11.2 | > 2.6 | > 9.2 | – | 26.2 ± 2 µM | – | >300.0 µM | – |
| O=C(Nc1ccn([C@@H]2O[C@H](CO)[C@@H](O)C2(F)F)c(=O)n1)c1ccc(-c2ccccc2)cn1 [Compound 2d] | – | > 1.4 | 46.1 ± 3 µM | 119 ± 66.2 µM | 50.2 ± 3.4 µM | 219 ± 36.3 µM | > 300 µM | > 7.7 | > 1.4 | > 6.0 | – | > 6.5 | – | – | – | >300.0 µM | EC50 (B/Lee/40; [6]): 39.1 ± 3.2 µM |
| O=C(Nc1ccn([C@@H]2O[C@H](CO)[C@@H](O)C2(F)F)c(=O)n1)c1ccc(F)cn1 [Compound 2f] | 10.7 to 34.3 µM | > 8.7 | 7.2 ± 0.4 µM | 26.9 ± 16.3 µM | 6 ± 0.1 µM | 10.7 ± 0.2 µM | > 300 µM | > 94.8 | > 28.0 | > 49.9 | > 11.1 | > 41.6 | 25.7 ± 6.4 µM | 3.2 ± 2.3 µM | > 11.7 | – | – |
| COc1ccc(C(=O)Nc2ccn([C@@H]3O[C@H](CO)[C@@H](O)C3(F)F)c(=O)n2)nc1 [Compound 2g] | – | > 1.4 | 28.5 ± 4.2 µM | 68.8 ± 22.7 µM | 18.6 ± 0.1 µM | 32.3 ± 0.7 µM | > 300 µM | > 22.6 | > 9.3 | > 16.1 | > 4.4 | > 10.5 | 98.1 ± 16.7 µM | 13.3 ± 2.7 µM | > 3.1 | >300.0 µM | – |
| O=C(Nc1ccn([C@@H]2O[C@H](CO)[C@@H](O)C2(F)F)c(=O)n1)c1ccc([N+](=O)[O-])cn1 [Compound 2i] | – | > 1.4 | 1.1 µM | 2.2 ± 0.2 µM | 0.6 ± 0.1 µM | 1.1 µM | > 300 µM | > 464.8 | 15.7 | > 518.5 | 8.1 | – | – | – | 11.0 | 17.9 ± 6.7 µM | EC50 (B/Lee/40; [6]): 0.7 µM; EC90 (B/Lee/40): 1.6 ± 0.1 µM |
| Cc1ccc(C(=O)Nc2ccn([C@@H]3O[C@H](CO)[C@@H](O)C3(F)F)c(=O)n2)cn1 [Compound 3b] | 1.4 to 1.8 µM | – | 0.9 µM | 1.8 ± 0.1 µM | 0.7 µM | 1.4 ± 0.2 µM | > 300 µM | > 426.6 | 7.3 | > 437.2 | 5.7 | > 325.8 | 1.7 µM | 0.7 µM | 6.0 | – | recovery of viability of virus-infected cells with 90% cutoff [1]: active |
| O=C(Nc1ccn([C@@H]2O[C@H](CO)[C@@H](O)C2(F)F)c(=O)n1)c1ccc(F)nc1 [Compound 3c] | 4.9 to 22.6 µM | – | 3.3 ± 0.1 µM | 12.5 ± 3.6 µM | 2.6 ± 0.4 µM | 4.9 ± 0.4 µM | > 300 µM | > 170.6 | 51.2 | > 116.6 | 20.0 | > 90.6 | 22.6 ± 2 µM | 1.8 ± 0.3 µM | 11.1 | – | recovery of viability of virus-infected cells with 90% cutoff [1]: active |
| O=C(Nc1ccn([C@@H]2O[C@H](CO)[C@@H](O)C2(F)F)c(=O)n1)c1ccc(Cl)nc1 [Compound 3d] | – | – | 12.6 ± 2.5 µM | – | 9.5 ± 0.3 µM | – | > 300 µM | > 28.4 | – | > 31.5 | – | > 23.8 | – | 10.6 ± 1.7 µM | – | 91.1 ± 53.8 µM | – |
| COc1ccc(C(=O)Nc2ccn([C@@H]3O[C@H](CO)[C@@H](O)C3(F)F)c(=O)n2)cn1 [Compound 3e] | – | – | 23.5 ± 4.1 µM | – | 24 ± 2 µM | – | > 300 µM | > 16.2 | – | > 12.5 | – | > 12.8 | – | 18.5 ± 2 µM | – | 129.7 ± 74.0 µM | – |
| O=C(Nc1ccn([C@@H]2O[C@H](CO)[C@@H](O)C2(F)F)c(=O)n1)c1ccc(C(F)(F)F)nc1 [Compound 3f] | – | – | 4.1 ± 0.3 µM | – | 3.5 ± 0.6 µM | – | > 300 µM | > 73.9 | – | > 84.7 | – | > 73.6 | – | 4.1 ± 0.1 µM | – | 7.9 ± 8.4 µM | – |
| Cc1nc(C(F)(F)F)ccc1C(=O)Nc1ccn([C@@H]2O[C@H](CO)[C@@H](O)C2(F)F)c(=O)n1 [Compound 3g] | – | – | – | – | – | – | > 300 µM | – | – | – | – | – | – | – | – | 8.7 ± 8.2 µM | antiviral activity against influenza viruses (in words) [1]: completely lost antiviral activity |
| NC(=O)c1nc(F)c[nH]c1=O [Favipiravir, reference compound] | – | – | 1.8 ± 0.1 µM | 8.5 ± 0.2 µM | 3 ± 0.4 µM | 6.9 ± 1.8 µM | > 300 µM | > 200.0 | > 43.5 | > 100.0 | > 35.3 | > 166.7 | 16.3 ± 4.2 µM | 1.5 ± 0.2 µM | > 18.4 | >300.0 µM | – |
| CCC(CC)O[C@@H]1C=C(C(=O)O)C[C@H](N)[C@H]1NC(C)=O [Oseltamivir carboxylate, reference compound] | – | – | 0.8 ± 0.4 µM | 12.5 ± 8.1 µM | < 0.05 µM | 0.5 ± 0.2 µM | > 300 µM | > 30.0 | > 600.0 | > 6,000 | > 24.0 | > 375.0 | 60.4 ± 0.1 µM | 10 ± 0.9 µM | > 5.0 | >300.0 µM | – |
